The conditions of data set [1]: as disclosed in prior-art patents; cited from earlier work.
The test system of data set [2] is Cholesterol level in the serum. Put plainly: Lipid level lowering activity: serum cholesterol depression in normolipemic rats. The following applies: Rattus norvegicus, oral, by regression analysis; for ED15: dose leading to 15% depression of serum cholesterol; for ED20: dose leading to 20% depression of serum cholesterol. Format: in vivo, male normolipemic rats. The protocol:
(§1) The above pharmacologicaly activity of the compounds of this invention, as well as their acute toxicities, were ascertained along with those of the three antihyperlipidemic compounds of the prior art by the standard test methods described below.
The test compound was administered twice by an esophageal tube at 20 hours' interval to male normolipemic rats having a body weight of 250-300 gm. When the test began, the animals were deprived of food, but water was freely accessible to them. 28 and 44 hours later the serum cholesterol and triglyceride-levels were determined. The measurement of cholesterol and triglycerides was effected simultaneously, using an autoanalyzer; the percentage depression was calculated, compared with a control group treated with placebo.
The cholesterol-lowering activity of the test compound was observed after oral administration of one dose and after oral administration of various doses.

The next data set relates to white mice. Put plainly: Acute toxicity, oral. It counts as in vivo. The following applies: 14 days, at the dose given as LD50. The protocol:
as §1
(§2) The acute toxicity was determined on groups of 5 or 6 white mice each, after oral administration of the test compound at dosage levels of 2.5 gm/kg, 5 gm/kg and 10 gm/kg (observation time 14 days).

A short description of the next data set: Acute toxicity, oral. It counts as in vivo. The conditions noted are these: mouse, in vivo, white mice, observation time 14 days. On the procedure: as §1, §2
The conditions of data set [3]: see Therapie 27, 385 (1972); cited from earlier work.
Where [4] appears, read: 28 hours after beginning of the test.
Where [5] appears, read: 44 hours after beginning of the test.

Structures are written as SMILES.

With `COC(=O)C(C)(C)Oc1ccc(-c2ccc(Cl)cc2)cc1` [D, methyl 2-[4-(4-chlorophenyl)-phenoxy]-2-methyl-propionate], in data set [1], the “antihypercholesteremic / antihyperlipidemic properties” value is given as “has antihyperlipidemic properties”. In data set [2] (setting [4]), this compound gave an ED15 of 6.9 mg/kg and an ED20 of 11 mg/kg. In data set [2] (setting [5]), this compound showed an ED15 of 4.4 mg/kg and an ED20 of 5.6 mg/kg. Moreover, in the data set with white mice, the animals died is 3 out of 5. In “Acute toxicity, oral”, this compound returned an LD50 at 336 h of 5000 mg/kg.
`CCOC(=O)C(C)(C)Oc1ccc(Cl)cc1` [C, ethyl 2-(4-chlorophenoxy)-2-methyl propionate]: the “Toxicity (LD50)” value in data set [3] was 1.7 gm/kg. Besides, in data set [1], the “antihypercholesteremic / antihyperlipidemic properties” value is recorded as “has antihypercholesteremic properties”. Besides, in data set [2] (setting [4]), the ED15 turned out to be 15 mg/kg and the ED20 was 22 mg/kg. In addition, in data set [2] (setting [5]), the ED15 is 25 mg/kg and the ED20 was determined as 32 mg/kg.
With `COc1ccc(Cl)cc1C(=O)NCCc1ccc(-c2ccc(OC(C)(C)C(=O)O)cc2)cc1` [A, 2-methyl-2-{4-[2-(2-methoxy-5-chloro-benzamido)-ethyl]-biphenyl-4'-oxy}-propionic acid], the ED20 in data set [2] (setting [4]) was 16 mg/kg; in data set [2] (setting [5]) it was 4.41 mg/kg. Also, the animals died in the data set with white mice is recorded as 0 out of 5. For the same compound, the LD50 at 336 h in the data set “Acute toxicity, oral” was above 10000 mg/kg.
For the compound `COc1ccccc1C(=O)NCCc1ccc(-c2ccc(OC(C)(C)C(=O)O)cc2)cc1` [B, 2-methyl-2-{4-[2-(2-methoxy-benzamido)-ethyl]-biphenyl-4'-oxy}-propionic a cid], the results for the ED20 in data set [2] (setting [4]) and in data set [2] (setting [5]) were 3.1 mg/kg and 0.59 mg/kg, respectively. Also, the animals died in the data set on white mice is 1 out of 5. The compound further displayed a 50% lethal dose (LD50) at 336 h in the data set “Acute toxicity, oral” above 2500 mg/kg.
Take `CCOC(=O)C(C)(C)Oc1ccc(CCNC(=O)c2cc(Cl)ccc2OC)cc1` [E, ethyl 2-methyl-2-{4-[2-(2-methoxy-5-chloro-benzamido)-ethyl]-phenoxy}-propionate]: the “antihypercholesteremic / antihyperlipidemic properties” value in data set [1] was “exhibits similar properties”. In data set [2] (setting [4]), this compound returned an ED15 of 3.6 mg/kg and an ED20 of 5 mg/kg. Besides, in data set [2] (setting [5]), the ED15 amounted to 3.6 mg/kg and the ED20 amounted to 5 mg/kg. Moreover, the animals died in the data set on white mice is given as 3 out of 6. Moreover, the LD50 at 336 h in the data set “Acute toxicity, oral” came to 2500 mg/kg.

The record behind these values is patent US4042711A, “Derivatives of biphenyloxy-lower alkanoic acids, salts thereof and their use as antihyperlipidemics” (Boehringer Ingelheim GmbH, priority 1975, dated 1977).
